The text below walks through data of patent EP0085985A1, “Pyridazinone derivatives, pharmaceutically acceptable salts thereof and pharmaceutical compositions comprising said compounds” (MITSUBISHI KASEI CORPORATION, priority 1982, dated 1983).

The subject of series [1] is papillary muscle preparation of the dog. As to the kind of experiment: Isolated and cross-circulated papillary muscle preparation of the dog (contractility). Conditions: Canis lupus familiaris, read-out: Developed tension (% Increase); for activation at 0.03 mg: Dose 30 µg i.a.; for activation at 0.1 mg: Dose 100 µg i.a. The method, then:
(§1) By way of examples, pharmacological test procedures are described below. • (1) An isolated and cross-circulated papillary muscle preparation of the dog An isolated and cross-circulated papillary muscle preparation of the dog was prepared according to the method of Endo and Hashimoto [see American J. Physiol., 218, 1459-1463, (1970) U. S. A.]. A test compound dissolved in a solvent was applied by proximal intraarterial injection and its effect on contractility of the papillary muscle was determined. The results are shown in Table 1. • (2) Isolated left atrium of the guinea pig Male guinea pigs weighing 200 - 300 g were stunned by a blow on the head and the hearts were quickly excised and placed in a Petri dish containing oxygenated Krebs-Hensleit solution. The left atrium was excised. A fine cotton suture was attached to the left atrial appendage. The tissue was mounted in a 30 ml organ bath filled with Krebs-Hensleit solution at 37°C and oxygenated with 95% 02 - 5% C02 mixture. The cotton thread was then attached to a force- displacement transducer connected to a polygraph. A silver wire electrode connected to a stimulator was placed at the bottom of the preparaticn. Resting tension applied was 0.5 g. The preparation was driven electrically by a stimulator at a rate of 120/min. with suprathreshold rectangular pulses of 1 msec duration. The preparation was left to equilibrate for 1 hour. The test compounds dissolved in vehicle were added to the organ bath and the response was recorded. The results are shown in Table 1. • (3) Intact anesthetized dog preparation Mongrel dogs of either sex weighing 8 - 13 kg were anesthetized with sodium pentobarbital (30 mg/kg i.v.). A tracheal cannula was inserted and artificial respiration was carried out by means of a Harvard respiration. The left femoral vein was cannulated for intravenous bolus injection of the test compounds. The chest was opened at the left 4th intercostal space, the heart was exposed, and a _Walton-Brodie type strain gauge was sutured to the wall of the right ventricle to measure myocadial contractile force. A polyethylene cannula connected to a transducer was introduced into the left ventricle through the ventricular wall and left ventricular pressure was measured. Peak positive rate of rise of left ventricular pressure (dP/dt max) was obtained by an electric differentiator. The test compounds were dissolved in appropriate vehicle and intravenously administered.

Series [2] has as its system left atrium of the guinea pig. As to the kind of experiment: Isolated, electrically driven left atrium of the guinea pig (contractility). The method, then: as §1
In the next series the test system is anesthetized dog. As to the kind of experiment: Intact anesthetized dog preparation (in situ), cardiac contractility. The format is in vivo. The settings on record: intravenous. The method, then:
as §1

The nature of series [3]: Acute toxicity, LD50 by the Litchfield-Wilcoxon method. The settings on record: in vivo. How it is done:
The values for LD50 were determined by the Litchfield-Wilcoxon method [J. T. Litchfield and F. Wilcoxon, J. Pharmacol. exp. Therap., 96, 99 (1949)].

A value given as a limit tells only on which side of the number the result lay.

Turning to `CNC(=S)Nc1ccc(C2=NNC(=O)CC2)cc1` [Example 2, 4,5-dihydro-6-(4-N-methylthioureidophenyl)-3-(2H)-pyridazinone], the activation at 0.01 mg in series [1] (Dose 10 µg i.a.) is 8.8%. Also, the activation at 0.03 mg in series [1] was determined as 47.4%. The “Developed tension (% Increase)” value amounted to 32.1 % Increase in series [2] (Concentration 3 x 10^-6 g/ml) and 28.9 % Increase in series [2] (Concentration 10^-6 g/ml). Also, the “Contractile force of right ventricle (% Increase)” value (“Contractile force … (% Increase)” for short) came out at 65.1 % Increase with anesthetized dog (Dose 0.03 mg/kg) and 74.8 % Increase in the series on anesthetized dog (Dose 0.1 mg/kg). For the same compound, the entries for the “dP/dt max. (% Increase)” value in the series on anesthetized dog (Dose 0.03 mg/kg) and in the series with anesthetized dog (Dose 0.1 mg/kg) were 28.4 % Increase and 95.4 % Increase, respectively. Moreover, the median lethal dose (LD50) in series [3] (iv) was above 100 mg/kg; in series [3] (po) it was above 2200 mg/kg.

Take `CCNC(=S)Nc1ccc(C2=NNC(=O)CC2)cc1` [Example 4, 4,5-dihydro-6-(4-N-ethylthioureidophenyl)-3-(2H)-pyridazinone]: in series [1], the activation at 0.03 mg is 8.4% and the activation at 0.1 mg came out at 11.5%. Also, the “Developed tension (% Increase)” value in series [2] (Concentration 3 x 10^-5 g/ml) worked out at 102 % Increase. Also, the “Developed tension (% Increase)” value in series [2] (Concentration 10^-5 g/ml) is listed as 85.6 % Increase. Moreover, in the series on anesthetized dog (Dose 0.3 mg/kg), the “Contractile force … (% Increase)” value was 75.8 % Increase and the “dP/dt max. (% Increase)” value was 49.9 % Increase. For the same compound, in the series with anesthetized dog (Dose 1 mg/kg), the “Contractile force … (% Increase)” value is 116.2 % Increase and the “dP/dt max. (% Increase)” value was 79.5 % Increase.

With `CNC(=S)Nc1ccc(-c2ccc(=O)[nH]n2)cc1` [Example 3, 6-(4-N-methylthioureidophenyl)-3-(2H)-pyridazinone], in series [1], the activation at 0.1 mg turned out to be 8.1%. Also, the activation at 0.3 mg in series [1] (Dose 300 µg i.a.) is 15.9%. For the same compound, the entries for the “Developed tension (% Increase)” value in series [2] (Concentration 3 x 10^-5 g/ml) and in series [2] (Concentration 10^-5 g/ml) were 34.0 % Increase and 28.3 % Increase, respectively.

In the case of `NC(=S)Nc1ccc(C2=NNC(=O)CC2)cc1` [Example 1, 4,5-dihydro-6-(4-thioureidophenyl)-3-(2H)-pyridazinone], in series [1], the activation at 0.03 mg came out at 9.5% and the activation at 0.1 mg was found to be 21.2%. The “Developed tension (% Increase)” value in series [2] (Concentration 3 x 10^-5 g/ml) came out at 44.9 % Increase. Moreover, in series [2] (Concentration 10^-5 g/ml), the “Developed tension (% Increase)” value is listed as 24.6 % Increase.
